The record followed here is patent US20090105305A1, “Therapeutic Agents - 550” (AstraZeneca AB, priority 2006, published 2009).

One may read the inhibition as how much of the control response was suppressed. High values mean a strong effect, low ones a weak effect. By IC50 is commonly meant the concentration needed to halve the response being measured.

The target of one test is T1, human Fatty Acid Synthase (Homo sapiens, UniProt P49327).
T1 construct: made in house
T1 sequence (P49327 whole entry): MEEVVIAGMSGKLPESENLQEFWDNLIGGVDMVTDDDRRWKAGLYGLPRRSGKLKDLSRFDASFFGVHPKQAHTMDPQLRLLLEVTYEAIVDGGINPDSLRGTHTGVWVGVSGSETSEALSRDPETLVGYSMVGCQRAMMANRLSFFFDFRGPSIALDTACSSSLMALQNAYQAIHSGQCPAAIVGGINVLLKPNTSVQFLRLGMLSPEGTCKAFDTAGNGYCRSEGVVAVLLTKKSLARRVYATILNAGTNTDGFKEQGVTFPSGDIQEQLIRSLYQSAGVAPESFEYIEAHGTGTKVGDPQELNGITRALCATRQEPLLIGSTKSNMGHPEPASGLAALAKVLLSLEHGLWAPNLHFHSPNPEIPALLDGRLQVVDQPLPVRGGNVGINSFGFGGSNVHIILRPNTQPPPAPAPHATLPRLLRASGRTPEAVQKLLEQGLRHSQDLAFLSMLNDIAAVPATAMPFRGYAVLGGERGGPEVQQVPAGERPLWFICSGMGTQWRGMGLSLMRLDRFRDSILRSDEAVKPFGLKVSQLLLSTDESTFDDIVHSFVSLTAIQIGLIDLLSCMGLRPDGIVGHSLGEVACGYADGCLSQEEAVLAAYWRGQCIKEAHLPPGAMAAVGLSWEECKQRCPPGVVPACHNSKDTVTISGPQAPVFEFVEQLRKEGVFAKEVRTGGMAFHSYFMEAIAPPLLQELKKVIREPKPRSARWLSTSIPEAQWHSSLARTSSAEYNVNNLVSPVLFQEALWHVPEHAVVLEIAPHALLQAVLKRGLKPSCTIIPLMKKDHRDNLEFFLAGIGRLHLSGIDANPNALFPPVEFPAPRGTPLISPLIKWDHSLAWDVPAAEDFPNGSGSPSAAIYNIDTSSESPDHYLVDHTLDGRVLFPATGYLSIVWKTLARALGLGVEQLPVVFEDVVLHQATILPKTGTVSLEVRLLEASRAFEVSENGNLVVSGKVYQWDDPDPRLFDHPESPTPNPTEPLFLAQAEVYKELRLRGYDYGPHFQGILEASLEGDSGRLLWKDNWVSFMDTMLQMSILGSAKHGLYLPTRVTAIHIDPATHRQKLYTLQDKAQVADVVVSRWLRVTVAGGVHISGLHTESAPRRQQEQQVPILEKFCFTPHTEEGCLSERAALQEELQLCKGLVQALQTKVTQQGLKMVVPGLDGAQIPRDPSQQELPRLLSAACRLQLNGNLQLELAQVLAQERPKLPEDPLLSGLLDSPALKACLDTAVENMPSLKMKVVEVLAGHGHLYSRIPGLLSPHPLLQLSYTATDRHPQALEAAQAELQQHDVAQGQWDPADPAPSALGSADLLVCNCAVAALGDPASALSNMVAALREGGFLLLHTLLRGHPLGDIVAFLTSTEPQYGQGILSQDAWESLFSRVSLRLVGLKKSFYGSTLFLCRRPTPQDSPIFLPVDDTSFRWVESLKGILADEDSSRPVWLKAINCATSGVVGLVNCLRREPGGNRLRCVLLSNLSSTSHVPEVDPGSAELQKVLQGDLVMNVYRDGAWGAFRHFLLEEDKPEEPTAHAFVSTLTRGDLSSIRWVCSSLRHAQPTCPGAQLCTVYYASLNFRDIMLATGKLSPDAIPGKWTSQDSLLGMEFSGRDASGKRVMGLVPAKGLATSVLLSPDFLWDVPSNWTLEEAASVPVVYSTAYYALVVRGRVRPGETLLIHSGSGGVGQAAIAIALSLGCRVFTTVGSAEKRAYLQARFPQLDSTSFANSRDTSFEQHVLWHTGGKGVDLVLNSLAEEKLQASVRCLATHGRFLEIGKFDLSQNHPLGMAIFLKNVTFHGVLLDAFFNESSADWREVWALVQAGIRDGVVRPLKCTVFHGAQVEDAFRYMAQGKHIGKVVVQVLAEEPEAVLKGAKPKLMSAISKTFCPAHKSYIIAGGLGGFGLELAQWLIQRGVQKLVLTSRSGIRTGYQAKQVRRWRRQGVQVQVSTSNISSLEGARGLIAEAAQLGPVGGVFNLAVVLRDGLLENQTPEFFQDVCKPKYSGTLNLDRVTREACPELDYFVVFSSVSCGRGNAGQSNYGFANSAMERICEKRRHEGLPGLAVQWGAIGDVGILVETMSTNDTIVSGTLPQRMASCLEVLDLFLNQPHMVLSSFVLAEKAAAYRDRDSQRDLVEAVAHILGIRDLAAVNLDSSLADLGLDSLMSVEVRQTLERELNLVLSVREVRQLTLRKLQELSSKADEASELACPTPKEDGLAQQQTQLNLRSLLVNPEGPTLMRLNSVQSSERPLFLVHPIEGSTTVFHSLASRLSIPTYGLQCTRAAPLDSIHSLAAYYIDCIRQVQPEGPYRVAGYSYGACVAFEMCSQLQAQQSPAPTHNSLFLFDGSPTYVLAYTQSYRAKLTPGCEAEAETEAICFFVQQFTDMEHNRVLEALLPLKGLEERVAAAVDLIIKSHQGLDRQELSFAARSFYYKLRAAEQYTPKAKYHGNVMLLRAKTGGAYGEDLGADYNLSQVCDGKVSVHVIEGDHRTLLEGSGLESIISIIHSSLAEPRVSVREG
The test can be described thus: Human FAS enzyme assay (decrease in NADPH fluorescence). It counts as biochemical. The note with it: % inhibition at a concentration of 100 micromolar. A digest of the protocol: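 In-house human FAS (0.4 μg) was preincubated 15 min at RT with compound and NADPH (added at 166.6 μM) in 0.1 M Tris pH 7.5, 1 mM glutathione, 0.05% BSA. Malonyl-/acetyl-CoA (500/150 μM in substrate mix) was then added for 60 min. Readout was NADPH fluorescence loss (ex 340/em 460) over a time-zero read, with IC50 from a sigmoid fit.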
Regarding `N#Cc1ccc(C2CCN(C(=O)c3ccc(C#N)c(NS(=O)(=O)Cc4ccccc4)c3)CC2)cc1` [Example 196, N-[2-cyano-5-[4-(4-cyanophenyl)piperidine-1-carbonyl]phenyl]-1-phenylmethane-sulfonamide], 100 µM produced 96% inhibition.

`N#Cc1ccc(C2CCN(C(=O)c3cccc(NS(=O)(=O)Cc4ccccc4)c3)CC2)cc1` [Example 66, N-[3-[4-(4-cyanophenyl)piperidine-1-carbonyl]phenyl]-1-phenyl-methanesulfonamide] gave an inhibition at 100 µM of 80%. On to `Cc1ccc(C(=O)N2CCC(c3ccc(C#N)cc3)CC2)cc1NS(=O)(=O)c1cccnc1` [Example 107, N-[5-[4-(4-cyanophenyl)piperidine-1-carbonyl]-2-methyl-phenyl]pyridine-3-sulfonamide], for which the inhibition at 100 µM amounted to 92%. `COc1ccc(C2CCN(C(=O)c3ccc(C)c(NS(C)(=O)=O)c3)CC2)cc1` [Example 162, N-[5-[4-(4-methoxyphenyl)piperidine-1-carbonyl]-2-methylphenyl]methanesulfonamide] had an inhibition at 100 µM of 86%. For `Cc1ccc(C(=O)N2CCC(c3ccc(C#N)cc3)CC2)cc1NS(=O)(=O)c1cccc(C(N)=O)c1` [Example 81, 3-[[5-[4-(4-cyanophenyl)piperidine-1-carbonyl]-2-methyl-phenyl]sulfamoyl]benzamide], the inhibition at 100 µM was 90%. Regarding `Cc1ccc(C(=O)N2CCC(c3ccc(C#N)cc3)CC2)cc1NS(=O)(=O)c1c(C)nn(C)c1C` [Example 152, N-[5-[4-(4-cyanophenyl)piperidine-1-carbonyl]-2-methyl-phenyl]-1,3,5-trimethyl-pyrazole-4-sulfonamide], at 100 µM the inhibition was 87%.

Regarding `Cc1ccc(C(=O)N2CCC(c3ccc(CNS(C)(=O)=O)cc3)CC2)cc1NS(C)(=O)=O` [Example 163, N-[[4-[1-(3-methanesulfonamido-4-methylbenzoyl)piperidin-4-yl]phenyl]methyl]methanesulfonamide], the inhibition at 100 µM is 85%. As for `Cc1ccc(C(=O)N2CCC(O)(c3ccc(Br)cc3)CC2)cc1NS(C)(=O)=O` [Example 200, N-[5-[4-(4-bromophenyl)-4-hydroxypiperidine-1-carbonyl]-2-methylphenyl]methane-sulfonamide], the inhibition at 100 µM came out at 48%. Same read-out and setting: the value for `Cc1ccc(C(=O)N2CCC(c3ccc(CNS(=O)(=O)CC(C)C)cc3)CC2)cc1NS(C)(=O)=O` [Example 238, N-[[4-[1-(3-methanesulfonamido-4-methylbenzoyl)piperidin-4-yl]phenyl]methyl]-2-methylpropane-1-sulfonamide] was 81.3%.

Consider `CC(=O)NCCCS(=O)(=O)Nc1cc(C(=O)N2CCC(c3ccc(C#N)cc3)CC2)ccc1C` [Example 136, N-[3-[[5-[4-(4-cyanophenyl)piperidine-1-carbonyl]-2-methyl-phenyl]sulfamoyl]propyl]acetamide], for which the inhibition at 100 µM turned out to be 94%. With `Cc1ccc(C(=O)N2CCC(c3ccc(C#N)cc3)CC2)cc1NS(=O)(=O)CCNS(=O)(=O)C(C)C` [Example 80, N-[2-[[5-[4-(4-cyanophenyl)piperidine-1-carbonyl]-2-methyl-phenyl]sulfamoyl]ethyl]propane-2-sulfonamide], the inhibition at 100 µM amounted to 90%. `Cc1ccc(NS(=O)(=O)CC(C)C)cc1C(=O)N1CCC(c2ccc(C#N)cc2)CC1` [Example 57, N-[3-[4-(4-cyanophenyl)piperidine-1-carbonyl]-4-methyl-phenyl]-2-methyl-propane-1-sulfonamide] showed an inhibition at 100 µM of 94%. On the same count and under the same terms, the figure for `Cc1ccc(C(=O)N2CCC(c3ccc(C#N)cc3)CC2)cc1NS(=O)(=O)c1cccc(C(=O)NCCO)c1` [Example 84, 3-[[5-[4-(4-cyanophenyl)piperidine-1-carbonyl]-2-methyl-phenyl]sulfamoyl]-N-(2-hydroxyethyl)benzamide] is 92%; for `Cc1ccc(C(=O)N2CCC(c3ccc(C#N)cc3)CC2)cc1NS(=O)(=O)c1ccc2c(c1)CC(=O)N2` [Example 129, N-[5-[4-(4-cyanophenyl)piperidine-1-carbonyl]-2-methyl-phenyl]-2-oxo-1,3-dihydroindole-5-sulfonamide] it is 95%.

For `Cc1ccc(C(=O)N2CCC(c3ccc(CCCC(=O)O)cc3)CC2)cc1NS(=O)(=O)C1CCCCC1` [Example 246, 4-[4-[[13-(cyclohexylsulfonylamino)-4-methylbenzoyl]piperidin-4-yl]phenyl]butanoic acid], the Inhib % came to 92.8%. Take `Cc1ccc(C(=O)N2CCC(c3ccc(CN4CCOCC4)cc3)CC2)cc1NS(C)(=O)=O` [Example 243, N-[2-methyl-5-[4-[4-(morpholin-4-ylmethyl)phenyl]piperidine-1-carbonyl]phenyl]methanesulfonamide]: testing at 100 µM gave an inhibition of 69.9%. `Cc1nc(-c2ccc(C3CCN(C(=O)c4ccc(C)c(NS(C)(=O)=O)c4)CC3)cc2)no1` [Example 167, N-[2-methyl-5-[4-[4-(5-methyl-1,2,4-oxadiazol-3-yl)phenyl]piperidine-1-carbonyl]phenyl]methanesulfonamide] gave an inhibition at 100 µM of 87%. `Cc1ccc(C(=O)N2CCC(c3ccc(C#N)cc3)CC2)cc1NS(=O)(=O)CCN` [Example 72, 2-amino-N-[5-[4-(4-cyanophenyl)piperidine-1-carbonyl]-2-methyl-phenyl]ethanesulfonamide] came in with an inhibition at 100 µM of 93%. `Cc1cc(C)c(C(=O)N2CCC(c3ccc(C#N)cc3)CC2)cc1NS(=O)(=O)C1CC1` [Example 116, N-[5-[4-(4-cyanophenyl)piperidine-1-carbonyl]-2,4-dimethyl-phenyl]cyclopropanesulfonamide]: at 100 µM the inhibition was 92%. With `CNC(=O)Cc1ccc(C2CCN(C(=O)c3ccc(C)c(NS(C)(=O)=O)c3)CC2)cc1` [Example 240, 2-[4-[1-(3-methanesulfonamido-4-methylbenzoyl)piperidin-4-yl]phenyl]-N-methylacetamide], the inhibition at 100 µM was 63.9%. For the compound `Cc1ccc(C(=O)N2CCC(c3ccc(C(F)(F)F)cc3)CC2)cc1NS(=O)(=O)C1CCS(=O)(=O)C1` (stereo not drawn) [Example 177, N-[2-methyl-5-[4-[4-(trifluoromethyl)phenyl]piperidine-1-carbonyl]phenyl]-1,1-dioxothiolane-3-sulfonamide], the inhibition at 100 µM worked out at 91%. The compound `Cc1ccc(C(=O)N2CCC(c3ccc(C#N)cc3)CC2)cc1NS(=O)(=O)Cc1ccccc1F` [Example 26, N-[5-[4-(4-cyanophenyl)piperidine-1-carbonyl]-2-methyl-phenyl]-1-(2-fluorophenyl)methanesulfonamide] came in with an inhibition at 100 µM of 94%. Take `CCCC(C)S(=O)(=O)Nc1cc(C(=O)N2CCC(c3ccc(C#N)cc3)CC2)ccc1C` (stereo not drawn) [Example 63, N-[5-[4-(4-cyanophenyl)piperidine-1-carbonyl]-2-methyl-phenyl]pentane-2-sulfonamide]: the inhibition at 100 µM is 85%.

Compound `CCC1(CS(=O)(=O)Nc2cc(C(=O)N3CCC(c4ccc(C#N)cc4)CC3)ccc2C)NC(=O)NC1=O` (stereo not drawn) [Example 148, N-[5-[4-(4-cyanophenyl)piperidine-1-carbonyl]-2-methyl-phenyl]-1-(4-ethyl-2,5-dioxo-imidazolidin-4-yl)methanesulfonamide] gave an inhibition at 100 µM of 100%. In turn, `CCCCS(=O)(=O)Nc1cc(C(=O)N2CCC(c3ccc(C#N)cc3)CC2)ccc1C` [Example 12, N-[5-[4-(4-cyanophenyl)piperidine-1-carbonyl]-2-methyl-phenyl]butane-1-sulfonamide] yielded an inhibition at 100 µM of 90%.

On to `Cc1ccc(C(=O)N2CCC(c3ccc(C#N)cc3)CC2)cc1NS(=O)(=O)c1cccc(C(=O)N(C)C)c1` [Example 82, 3-[[5-[4-(4-cyanophenyl)piperidine-1-carbonyl]-2-methyl-phenyl]sulfamoyl]-N,N-dimethyl-benzamide], for which the inhibition at 100 µM is 93%.

As to `N#Cc1ccc(C2CCN(C(=O)c3cc(NS(=O)(=O)Cc4ccccc4)ccc3F)CC2)cc1` [Example 199, N-[3-[4-(4-cyanophenyl)piperidine-1-carbonyl]-4-fluorophenyl]-1-phenylmethane-sulfonamide], the inhibition at 100 µM was 79%. For the compound `Cc1ccc(C(=O)N2CCC(c3ccc(CNC(=O)C(C)C)cc3)CC2)cc1NS(C)(=O)=O` [Example 226, N-[[4-[1-(3-methanesulfonamido-4-methylbenzoyl)piperidin-4-yl]phenyl]methyl]-2-methylpropanamide], the inhibition at 100 µM was 81%.

Staying with this test, now noted: compounds excluded from the claims by proviso.
For `Cc1ccc(C(=O)N2CCC(c3cccc(F)c3)CC2)cc1NS(C)(=O)=O` [N-[5-[4-(3-fluorophenyl)piperidine-1-carbonyl]-2-methylphenyl]methanesulfonamide], the “IC50s in the range of about 0.001 μM to about 30 μM” value is “do not have IC50s in the range of about 0.001 μM to about 30 μM”. With `Cc1ccc(C(=O)N2CCC(c3cc(F)c(C#N)c(F)c3)CC2)cc1NS(C)(=O)=O` [N-[5-[4-(4-cyano-3,5-difluorophenyl)piperidine-1-carbonyl]-2-methylphenyl]methanesulfonamide], the “IC50s in the range of about 0.001 μM to about 30 μM” value is recorded as “do not have IC50s in the range of about 0.001 μM to about 30 μM”. On the same count and under the same terms, the value for `C#Cc1cccc(C2CCN(C(=O)c3ccc(C)c(NS(C)(=O)=O)c3)CC2)c1` [N-[5-[4-(3-ethynylphenyl)piperidine-1-carbonyl]-2-methylphenyl]methanesulfonamide] was “do not have IC50s in the range of about 0.001 μM to about 30 μM”.

The same test, now with this note: unit inferred.
Consider `Cc1ccc(C(=O)N2CCC(c3ccc(CCC(=O)N(C)C)cc3)CC2)cc1NS(C)(=O)=O` [Example 249, 3-[4-[1-(3-methanesulfonamido-4-methylbenzoyl)piperidin-4-yl]phenyl]-N,N-dimethylpropanamide], for which the IC50 was 0.515 µM. In turn, `COCCOCC#Cc1ccc(C2CCN(C(=O)c3ccc(C)c(NS(C)(=O)=O)c3)CC2)cc1` [Example 247, N-[5-[4-[4-[3-(2-methoxyethoxy)prop-1-ynyl]phenyl]piperidine-1-carbonyl]-2-methylphenyl]methanesulfonamide] came in with an IC50 of 1.78 µM.
